Activity calls are given as the source filed them. The rule behind the calls is not given here.

The record followed here is ChEMBL document CHEMBL2202997, “Ex vivo study of the vasorelaxant activity induced by phenanthrene derivatives isolated from Maxillaria densa” (J Nat Prod, 2012).

In test [1] the test system is Aorta. Put plainly: Vasorelaxant activity in Wistar rat aorta without endothelium assessed as inhibition of norepinephrine-induced contraction. In kind it is functional, tissue-based.
In test [2] the test system is Aorta. As to the kind of experiment: Vasorelaxant activity in Wistar rat aorta with endothelium assessed as inhibition of norepinephrine-induced contraction relative to control. It counts as functional.
Test [3] relates to Aorta. Put plainly: Vasorelaxant activity in Wistar rat aorta with endothelium assessed as inhibition of norepinephrine-induced contraction. It counts as functional, tissue-based.
Test [4] concerns Aorta. As to the kind of experiment: Vasorelaxant activity in Wistar rat aorta without endothelium assessed as inhibition of norepinephrine-induced contraction relative to control. It counts as functional.
The subject of test [5] is Aorta. Put plainly: Induction of relaxation in Wistar rat endothelium-denuded aorta in presence of potassium channel blocker glibenclamide. It counts as functional, tissue-based.
The test system of test [6] is Aorta. As to the kind of experiment: Vasorelaxant activity in Wistar rat aorta without endothelium assessed as inhibition of extracellular Ca2+-induced contractions activated by potassium chloride-induced contraction. It counts as functional, tissue-based.
Test [7] concerns Aorta. As to the kind of experiment: Vasorelaxant activity in Wistar rat endothelium-denude aorta assessed as inhibition of norepinephrine-induced contraction in presence of soluble guanylyl cyclase inhibitor ODQ. It counts as functional, tissue-based.
For test [8], the system named is Aorta. Put plainly: Induction of relaxation in Wistar rat endothelium-denuded aorta in presence of potassium channel blocker TEA. In kind it is functional, tissue-based.
Test [9] concerns Aorta. Put plainly: Vasorelaxant activity in Wistar rat endothelium-denuded aorta assessed as inhibition of FPL-64176-induced contraction at 11 to 63 uM. In kind it is functional, tissue-based.
Test [10] deals with Aorta. Put plainly: Vasorelaxant activity in Wistar rat endothelium-denuded aorta assessed as inhibition of CaCl2-induced contraction. It counts as functional, tissue-based.
Test [11] deals with Aorta. As to the kind of experiment: Vasorelaxant activity in Wistar rat aorta without endothelium assessed as inhibition of extracellular Ca2+-induced contractions activated by potassium chloride-induced contraction relative to control. In kind it is functional.

In the case of `COc1c(O)cc2cc(OC)c3cccc(O)c3c2c1OC` [FIMBRIOL A], the EC50 is 288 µM in the test on Aorta [1] and 234 µM with Aorta [3]. Further, the inhibition entry with Aorta [1] and in the test with Aorta [3] was “Dose-dependent effect” throughout. Besides, the Efficacy came out at 83.05% with Aorta [2] and 73.86% in the test on Aorta [4].

As to `COc1c(O)cc2cc(OC)c3cc(O)ccc3c2c1OC` [GYMNOPUSIN], the outcome with Aorta [5] and with Aorta [8] was inactive. Also, the values for the EC50 in the test with Aorta [6], in the test on Aorta [1] and with Aorta [3] were 119 µM, 70.2 µM and 63 µM, respectively. Besides, the inhibition entry in the test on Aorta [1], in the test on Aorta [3] and in the test with Aorta [9] was “Dose-dependent effect” in each case. The Efficacy with Aorta [2] is recorded as 94%; in the test with Aorta [4], 98.18%; in the test with Aorta [11] it was 71.3%. Besides, the inhibition result with Aorta [7] and in the test with Aorta [10] was “Active” each time.

With `COC(=O)C1=C(C)NC(C)=C(C(=O)OC)C1c1ccccc1[N+](=O)[O-]` [NIFEDIPINE], the EC50 with Aorta [1] was 4.31 µM. In addition, the Efficacy in the test on Aorta [4] came to 97%.

For the molecule `C[N+](C)(C)CCOC(N)=O.[Cl-]` [CARBACHOL], the Efficacy with Aorta [2] worked out at 74.06%. Also, the EC50 with Aorta [3] turned out to be 0.41 µM.

For `COc1c(O)cc2c(c1OC)-c1ccc(O)cc1CC2` [ERIANTHRIDIN], the EC50 with Aorta [1] is 167 µM; with Aorta [3] it was 142 µM. In addition, the inhibition entry with Aorta [1] and in the test with Aorta [3] was “Dose-dependent effect” throughout. The Efficacy with Aorta [2] stood at 85.47%; in the test on Aorta [4] it was 82.4%.
